Measured values reported in patent US8092816B2, “Insecticidal compositions for control of general household pests” (priority 2004, dated 2012).
Like-named read-outs stand apart in the source and are kept apart here.

Tests used:
Red Imported Fire Ant = assay: Example 16: red imported fire ant knockdown and mortality, bifenthrin and clothianidin; type: in vivo, Solenopsis invicta
Source text: (§1) The following examples further illustrate the present invention, but, of course, should not be construed as in any way limiting its scope. The examples set forth certain biological data illustrating the efficacy of the compositions of the present invention in controlling general household pests. Each example embodies a separate test wherein the pests were randomly selected from a population at a random age. As a result, from example to example, the ages of the pests can be very different. This age difference potentially translates to different baselines for each example. Therefore, data should only be compared within the example and not from example to example due to the differences in age of the pests from example to example. Unless otherwise indicated, all parts, percentages, and the like are by weight. The spray chamber used in the examples was approximately 76 inches tall, 73 inches long and 31 inches deep with an adjustable shelf (approximately 22 inches deep) and a movable spray nozzle. The spray chambers were calibrated to deliver a volume of approximately 1 gallon of liquid per 1000 square feet of area at about 14 pounds per square inch of pressure. A DeVilbiss hand held sprayer (Atomizer model 152) manufactured by DeVilbiss located in Glendale Heights, Ill. was used in testing house flies and mosquitoes. The DeVilbiss was used to apply approximately 3-5 milliliters of product at about 10 pounds per square inch.
The compositions of the present invention were tested for red imported fire ant activity in the following manner:
(§2) Test compositions made up of TALSTARONE® MULTI-INSECTICIDE and a 16% a.i. water dispersible granular of clothianidin in distilled water were prepared that provided appropriate rates of application of combinations of bifenthrin and clothianidin, as well as bifenthrin and clothianidin alone.
The spray chamber was then calibrated to deliver the treatment solution at the desired volume and pressure over the desired area on the chamber shelf. Spray chamber shelf height was adjusted to approximately 18 inches from the spray tip. The shelf was then covered with aluminum foil and the center of the shelf from front-to-back and end-to-end was determined. The red imported fire ants to be treated were collected and placed in screened 16 oz paper cups. The paper cups were placed onto the aluminum foil on the spray chamber shelf. The sprayer was activated and the test compound was applied to each paper cup interior. Red imported fire ant knockdown and mortality were measured.

American cockroach [1] = assay: Example 3: American cockroach knockdown and mortality, bifenthrin and imidacloprid; type: in vivo
Source text: as §1
(§3) The compositions of the present invention were tested for American cockroach activity in the following manner:
Test compositions made up of TALSTARONE® MULTI-INSECTICIDE and a wettable powder of imidacloprid (MERIT) in distilled water were prepared that provided appropriate rates of application of combinations of bifenthrin and imidacloprid, as well as bifenthrin and imidacloprid alone.
(§4) The spray chamber was then calibrated to deliver the treatment solution at the desired volume and pressure over the desired area on the chamber shelf. Spray chamber shelf height was adjusted to approximately 18 inches from the spray tip. The shelf was then covered with aluminum foil and the center of the shelf from front-to-back and end-to-end was determined. A desired number of 4.0″ sieve circles were marked on the aluminum foil with a permanent marker. The inside of a desired number of PVC rings were coated with a petroleum jelly/mineral oil mixture (1:2 ratio). The PVC rings were place on the sieve circles. 10 male American cockroaches were placed inside each PVC ring. The sprayer was activated and the test compound was applied to each PVC ring interior. American cockroach knockdown and mortality were measured.

Yellow Fever Mosquito = type: in vivo
Source text: as §1
The compositions of the present invention were tested for Yellow Fever Mosquito activity in the following manner:
as §2
A DeVilbiss hand held sprayer was used to deliver the treatment solution at the desired volume and pressure. The Yellow Fever Mosquitoes to be treated were collected and placed in screened 16 oz paper cups. The hand held sprayer was activated and the test compound was applied to each paper cup interior. Yellow Fever Mosquito knockdown and mortality were measured.

House Fly = assay: Example 12: house fly knockdown and mortality, bifenthrin and thiamethoxam (higher thiamethoxam rates); type: in vivo
Source text: as §1
The compositions of the present invention were tested for house fly activity in the following manner:
(§5) Test compositions made up of TALSTARONE® MULTI-INSECTICIDE and a water dispersible granular of thiamethoxam (CENTRIC) in distilled water were prepared that provided appropriate rates of application of combinations of bifenthrin and thiamethoxam, as well as bifenthrin and thiamethoxam alone.
A DeVilbiss hand held sprayer was used to deliver the treatment solution at the desired volume and pressure. The house flies to be treated were collected and placed in screened 16 oz paper cups. The hand held sprayer was activated and the test compound was applied to each paper cup interior. House fly knockdown and mortality were measured.

American cockroach [2] = assay: Example 9: American cockroach knockdown and mortality, bifenthrin and thiamethoxam; type: in vivo
Source text: as §1, §3, §5, §4

[3] = rate of appln. 10 PPM (0.001% by weight)
[4] = rate of appln. 50 PPM (0.005% by weight)

## Cc1c(COC(=O)[C@@H]2[C@H](/C=C(\Cl)C(F)(F)F)C2(C)C)cccc1-c1ccccc1 (racemic) [A, 2-methylbiphenyl-3-ylmethyl (Z)-(1RS)-cis-3-(2-chloro-3,3,3-trifluoroprop-1-enyl)-2,2-dimethylcyclopropanecarboxylate]
Red Imported Fire Ant; [3]
  Knockdown Rate @ 5 minute: 30%
  Knockdown Rate @ 10 minute: 93%
  Knockdown Rate @ 15 minute: 95%
  Knockdown Rate @ 30 minutes: 100%
  Mortality Rate @ 60 minutes: 65%
  Mortality Rate @ 120 minutes: 100%
  Mortality Rate @ 4 hours: 100%
Red Imported Fire Ant; [4]
  Knockdown Rate @ 5 minute: 10%
  Knockdown Rate @ 10 minute: 70%
  Knockdown Rate @ 15 minute: 95%
  Knockdown Rate @ 30 minutes: 100%
  Mortality Rate @ 60 minutes: 100%
  Mortality Rate @ 120 minutes: 100%
  Mortality Rate @ 4 hours: 100%
American cockroach [1]; 10 PPM, 0.001% by weight
  Knockdown Rate @ 15 minute: 0%
  Knockdown Rate @ 30 minute: 0%
  Mortality Rate @ 60 minutes: 0%
  Mortality Rate @ 120 minutes: 0%
  Mortality Rate @ 4 hours: 5%
  Mortality Rate @ 1 day: 15%
  Mortality Rate @ 2 days: 25%
American cockroach [1]; 50 PPM, 0.005% by weight
  Knockdown Rate @ 15 minute: 0%
  Knockdown Rate @ 30 minute: 0%
  Mortality Rate @ 60 minutes: 5%
  Mortality Rate @ 120 minutes: 5%
  Mortality Rate @ 4 hours: 10%
  Mortality Rate @ 1 day: 65%
  Mortality Rate @ 2 days: 70%
Yellow Fever Mosquito; [3]
  Knockdown Rate @ 15 minute: 27%
  Knockdown Rate @ 30 minute: 97%
  Mortality Rate @ 45 minutes: 100%
  Mortality Rate @ 60 minutes: 100%
  Mortality Rate @ 120 minutes: 100%
  Mortality Rate @ 180 minute: 100%
  Mortality Rate @ 4 hours: 100%
  Mortality Rate @ 1 day: 100%
Yellow Fever Mosquito; [4]
  Knockdown Rate @ 15 minute: 90%
  Knockdown Rate @ 30 minute: 100%
  Mortality Rate @ 45 minutes: 100%
  Mortality Rate @ 60 minutes: 100%
  Mortality Rate @ 120 minutes: 100%
  Mortality Rate @ 180 minute: 100%
  Mortality Rate @ 4 hours: 100%
  Mortality Rate @ 1 day: 100%
House Fly; 10 PPM, 0.001% by weight
  Knockdown Rate @ 15 minute: 0%
  Knockdown Rate @ 30 minute: 0%
  Knockdown Rate @ 45 minutes: 17%
  Knockdown Rate @ 60 minutes: 40%
  Knockdown Rate @ 120 minutes: 63%
  Knockdown Rate @ 4 hours: 50%
  Mortality Rate @ 1 day: 30%
House Fly; 50 PPM, 0.005% by weight
  Knockdown Rate @ 15 minute: 0%
  Knockdown Rate @ 30 minute: 78%
  Knockdown Rate @ 45 minutes: 97%
  Knockdown Rate @ 60 minutes: 97%
  Knockdown Rate @ 120 minutes: 97%
  Knockdown Rate @ 4 hours: 97%
  Mortality Rate @ 1 day: 97%
American cockroach [2]; 10 PPM, 0.001% by weight
  Knockdown Rate @ 15 minute: 0%
  Knockdown Rate @ 30 minute: 0%
  Mortality Rate @ 60 minutes: 0%
  Mortality Rate @ 120 minutes: 0%
  Mortality Rate @ 4 hours: 0%
  Mortality Rate @ 1 day: 5%
American cockroach [2]; 50 PPM, 0.005% by weight
  Knockdown Rate @ 15 minute: 0%
  Knockdown Rate @ 30 minute: 0%
  Mortality Rate @ 60 minutes: 0%
  Mortality Rate @ 120 minutes: 0%
  Mortality Rate @ 4 hours: 0%
  Mortality Rate @ 1 day: 30%
